Assay results as given in US20040192720A1, “Novel heteroaryl alkylamide derivatives useful as bradykinin receptor modulators” (priority 2003, published 2004).

What was measured:
[1] = biological target: T1, human B2 bradykinin receptors (Homo sapiens, UniProt P30411); assay: Bradykinin B2 (BK2) Receptor Binding Assay; conditions: CHO-K1 membranes transfected with human B2 receptor, ~0.25 nM [3H]NPC17731, 60 min 25° C.
T1 construct: purchased Receptor Biology, Inc. (Baltimore, Md.); host or cells: CHO-K1 cells transfected with human B2 receptor (membranes)
T1 sequence (P30411 1-391): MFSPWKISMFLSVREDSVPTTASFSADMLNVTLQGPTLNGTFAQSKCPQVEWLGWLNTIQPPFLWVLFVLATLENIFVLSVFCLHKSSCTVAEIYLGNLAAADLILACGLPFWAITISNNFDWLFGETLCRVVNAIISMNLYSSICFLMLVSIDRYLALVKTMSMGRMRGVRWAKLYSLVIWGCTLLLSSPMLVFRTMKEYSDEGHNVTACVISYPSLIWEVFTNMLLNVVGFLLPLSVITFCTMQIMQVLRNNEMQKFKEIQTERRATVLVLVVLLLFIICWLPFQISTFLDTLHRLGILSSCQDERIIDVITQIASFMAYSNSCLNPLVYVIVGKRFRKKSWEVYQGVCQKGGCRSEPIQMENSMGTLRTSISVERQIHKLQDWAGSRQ
Description: Bradykinin B2 (BK2) Receptor Binding Assay
Cell membranes of CHO-K1 cells transfected with human B2 bradykinin receptors (CH)-hB2) were purchased from Receptor Biology, Inc. (Baltimore, Md.). 5.54 mg/mL of membrane protein suspended in 10 mM TRIS-HC pH 7.2, 2 mM EDTA, 10% sucrose.
Incubation for 60 min at 25° C. was performed in a total volume of 1 mL and contained, unless stated differently, 50 mM HEPES, pH 7.2, 5 mM MgCl2, 0.02 mg/mL 1.10-phenathroline (Sigma, P-9375), 0.25 mg/mL pefebloc SC (Boerhringer, 1429876), 30 μg/mL membrane protein and ˜0.25 nM [^3HNPC17731 (NEN, Boston). Samples were harvested on a Brandel Cell Harvester on to Wallac filtermat B sheets (96 sample format), and washed three times with 2 mL cold HEPES-buffer (10 mM, pH 7.5), and dried in a microwave oven. To each sample area 2×40 μL of Betaplate Scint scintillation fluid (LKB) was added and the radioactivity quantified on a LKB (Wallac) 1205 BetaPlate liquid scintillation counter.
The data were used to calculate either the % inhibition compared to control binding (when only a single concentration of test compound was evaluated) or a Ki value (when a range of concentrations were tested). Background was subtracted from mean cpm values and % inhibition was calculated as: [(total dpm-tpst compound dpm)/(total dpm-nonspecific dpm)]×100. Kd and Ki values were calculated using GraphPad PRISM data analysis program.

[2] = biological target: T2, human B2 bradykinin receptors (CHO-hB2 cell membranes) (Homo sapiens, UniProt P30411); assay: [35S]GTPγS Binding Assay in CHO-hB2 Cell Membranes; assay type: biochemical; conditions: bradykinin-stimulated [35S]GTPγS binding; for Functional Activity (% Basal): number in parentheses, concentration not given
T2 construct: purchased Receptor Biology, Inc. (Baltimore, Md.); host or cells: CHO-hB2 cells (membranes)
T2 sequence (P30411 1-391): T1 sequence (P30411 1-391)
Description: [^35S]GTPγS Binding Assay in CHO-hB2Cell Membranes
CHO-hB2 cell membranes were purchased from Receptor Biology, Inc. (Baltimore, Md.). 10 mg/mL of membrane protein was suspended in 10 mM TRIS-HC pH 7.2, 2 mM EDTA, 10% sucrose.
Membranes were added into 15 mL ice cold binding assay buffer. The assay buffer contained 50 mM HEPES, pH 7.6, 5 mM MgCl2, 100 mM NaCl, 1 mM DTT and 1 mM EDTA. The membrane suspension was homogenized twice with a Polytron and centrifuged at 3000 rpm for 10 min. The supernatant was then centrifuged at 18,000 rpm for 20 min. The pellet was saved in a tube and resuspended.
The pellet membranes (40 μg/mL) were preincubated with SPA (scintillation proximity assay) beads (20 mg/mL) at 25 C. ° for 45 min in the assay buffer. The SPA beads (5 mg/mL) coupled with membranes (10 μg/mL) were then incubated with 0.5 nM [^35S]GTPγS in the same HEPES buffer containing 50 μM GDP in total volume of 200 μL. Bradykinin was used to stimulate [^35S]GTPγS binding. Varying concentrations of drugs were incubated with bradykinin to inhibit bradykinin-stimulated [^35S]GTPγS binding. The basal binding was tested in the absence of bradykinin and no specific binding was tested in the present 10 μM unlabeled GTPγS. The radioactivity was quantified on a Packard Top Count, and calculated.
% of Basal=(stimulated binding−non specific binding)/(basal binding−non specific binding)×100.

With `Cc1ccc2cccc(OCc3c(Cl)ccc(NC(=O)Cc4ccc(C(=O)c5ccc(C#N)cc5)n4C)c3Cl)c2n1` [Compound 15] the Ki [1] was 6.17 µM and the “Functional Activity (word result)” value [2] was “Weak antagonist”.
Work on “N-[2,4-Dimethyl-3-(2-methyl-quinolin-8-yloxymethyl)-phenyl]-3-[5-(4-methoxy-benzoyl)-1-methyl-1H-pyrrol-2-yl]-N-methyl-propionamide [Compound 106]” yielded a Ki [1] of 0.375 µM.
`Cc1ccc2cccc(OCc3c(C)ccc(N4CCC[C@H]4CNC(=O)Cc4ccc(C(=O)c5ccc(C#N)cc5)n4C)c3C)c2n1` [Compound 113] gave a Ki [1] of 7.9 µM.
`CC(=O)Nc1cccc(C(=O)c2ccc(CC(=O)N(C)c3ccc(Cl)c(COc4cccc5ccc(C)nc45)c3Cl)n2C)c1` [Compound 72] was tested, and the “Functional Activity (word result)” value [2] was “Antagonist”.
`COc1ccc(C(=O)c2ccc(CC(=O)N(C)c3ccc(Cl)c(COc4cccc5ccc(C)nc45)c3Cl)n2C)cc1` [Compound 68] was tested, and the “Functional Activity (word result)” value [2] was “Weak antagonist” and the “Functional Activity (% Basal)” value [2] was 4 % Basal.
In the case of `CCn1c(CC(=O)N(C)c2ccc(Cl)c(COc3cccc4ccc(C)nc34)c2Cl)ccc1C(=O)c1ccc(C#N)cc1` [Compound 8], the “Functional Activity (word result)” value [2] is reported as “Antagonist” and the “Functional Activity (% Basal)” value [2] is reported as 40 % Basal.
`CC(=O)Nc1ccc(C(=O)c2ccc(CC(=O)N(C)c3ccc(Cl)c(COc4cccc5ccc(C)nc45)c3Cl)n2C)cc1` [Compound 74, 2-[5-(4-Acetylamino-benzoyl)-1-methyl-1H-pyrrol-2-yl]-N-[2,4-dichloro-3-(2-methyl-quinolin-8-yloxymethyl)-phenyl]-N-methyl-acetamide] was tested, and the “Functional Activity (word result)” value [2] was “Antagonist”.
In the case of `Cc1ccc2cccc(OCc3c(Cl)ccc(N(C)C(=O)Cc4ccc(C(=O)c5ccc(C(=O)N(C)C)cc5)n4C)c3Cl)c2n1` [Compound 62, 4-[5-({[2,4-Dichloro-3-(2-methyl-quinolin-8-yloxymethyl)-phenyl]-methyl-carbamoyl}-methyl)-1-methyl-1H-pyrrole-2-carbonyl]-N,N-dimethyl-benzamide], the “Functional Activity (word result)” value [2] is reported as “Antagonist”.
For `Cc1ccc2cccc(OCc3c(Cl)ccc(N(C)C(=O)Cc4ccc(C(=O)c5ccccc5[N+](=O)[O-])n4C)c3Cl)c2n1` [Compound 66], the “Functional Activity (word result)” value [2] was “Antagonist”.
`Cc1ccc2cccc(OCc3c(C)ccc(N(C)C(=O)Cc4ccc(C(=O)c5ccccc5)s4)c3C)c2n1` [Compound 108, 2-(5-Benzoyl-thiophen-2-yl)-N-[2,4-dimethyl-3-(2-methyl-quinolin-8-yloxymethyl)-phenyl]-N-methyl-acetamide] gave a Ki [1] of 0.09 µM.
`Cc1ccc2cccc(OCc3c(Cl)ccc(N(C)C(=O)Cc4ccc(C(=O)c5ccc(C#N)cc5)n4C)c3Cl)c2n1` [Compound 76] was tested, and the “Functional Activity (word result)” value [2] was “Antagonist”.
For `Cc1ccc2cccc(OCc3c(Cl)ccc(N(C)C(=O)Cc4ccc(C(=O)CN5CCC(Cc6ccccc6)CC5)n4C)c3Cl)c2n1` [Compound 59], the “Functional Activity (word result)” value [2] was “No effect” and the “Functional Activity (% Basal)” value [2] was 1 % Basal.
In the case of `Cc1ccc2cccc(OCc3c(C)ccc(N(C)C(=O)CCc4ccc(C(=O)c5cccnc5)n4C)c3C)c2n1` [Compound 84], the “Functional Activity (word result)” value [2] is reported as “Antagonist”.
With `Cc1ccc2cccc(OCc3c(Cl)ccc(N(C)C(=O)Cc4ccc(C(=O)c5ccc(C#N)cc5)n4CC(C)C)c3Cl)c2n1` [Compound 12] the “Functional Activity (word result)” value [2] was “No effect” and the “Functional Activity (% Basal)” value [2] was 1 % Basal.
With `Cc1ccc2cccc(OCc3c(C)ccc(N(C)C(=O)CCc4ccc(C(=O)c5ccc(C#N)cc5)n4C)c3C)c2n1` [Compound 90] the “Functional Activity (word result)” value [2] was “Antagonist” and the “Functional Activity (% Basal)” value [2] was 50 % Basal.
With `Cc1ccc2cccc(OCc3c(Cl)ccc(N(C)C(=O)Cc4ccc(C(=O)c5ccc(Cl)nc5)n4C)c3Cl)c2n1` [Compound 67, 2-[5-(6-Chloro-pyridine-3-carbonyl)-1-methyl-1H-pyrrol-2-yl]-N-[2,4-dichloro-3-(2-methyl-quinolin-8-yloxymethyl)-phenyl]-N-methyl-acetamide] the “Functional Activity (word result)” value [2] was “Antagonist”.
With `CCCCn1c(CC(=O)N(C)c2ccc(Cl)c(COc3cccc4ccc(C)nc34)c2Cl)ccc1C(=O)c1ccc(C#N)cc1` [Compound 10] the “Functional Activity (word result)” value [2] was “No effect” and the “Functional Activity (% Basal)” value [2] was 1 % Basal.
`CCCn1c(CC(=O)N(C)c2ccc(Cl)c(COc3cccc4ccc(C)nc34)c2Cl)ccc1C(=O)c1ccc(C#N)cc1` [Compound 9] was tested, and the “Functional Activity (word result)” value [2] was “No effect” and the “Functional Activity (% Basal)” value [2] was 1 % Basal.
`Cc1ccc2cccc(OCc3c(Cl)cc(Cl)c(N(C)C(=O)Cc4ccc(C(=O)c5ccc(Cl)nc5)n4C)c3Cl)c2n1` [Compound 117, 2-[5-(6-Chloro-pyridine-3-carbonyl)-1-methyl-1H-pyrrol-2-yl]-N-methyl-N-[2,4,6-trichloro-3-(2-methyl-quinolin-8-yloxymethyl)-phenyl]-acetamide] was tested, and the “Functional Activity (word result)” value [2] was “Antagonist”.
With `Cc1ccc2cccc(OCc3c(C)ccc(N(C)C(=O)CCc4ccc(C(=O)c5ccc(Cl)nc5)n4C)c3C)c2n1` [Compound 88] the “Functional Activity (word result)” value [2] was “Antagonist”.
`Cc1ccc2cccc(OCc3c(Cl)ccc(NC(=O)Cc4ccc(C(=O)c5ccc(C#N)nc5)n4C)c3Cl)c2n1` [Compound 14] was tested, and the Ki [1] was 6.76 µM.
With `Cc1ccc2cccc(OCc3c(C)ccc(N(C)C(=O)CCc4ccc(C(=O)c5ccncc5)n4C)c3C)c2n1` [Compound 82] the “Functional Activity (word result)” value [2] was “Antagonist” and the “Functional Activity (% Basal)” value [2] was 50 % Basal.
`CSc1ccc(C(=O)c2ccc(CC(=O)N(C)c3ccc(Cl)c(COc4cccc5ccc(C)nc45)c3Cl)n2C)cc1` [Compound 69] was tested, and the “Functional Activity (word result)” value [2] was “Antagonist”.
With `Cc1ccc2cccc(OCc3c(Cl)ccc(N(C)C(=O)Cc4ccc(C(=O)c5ccc(C#N)nc5)n4C)c3Cl)c2n1` [Compound 71] the “Functional Activity (word result)” value [2] was “Antagonist”.
With `Cc1ccc2cccc(OCc3c(Cl)ccc(N(C)C(=O)Cc4ccc(C(=O)c5cccs5)n4C)c3Cl)c2n1` [Compound 61] the “Functional Activity (word result)” value [2] was “Weak antagonist”.
With `CCN(C(=O)Cc1ccc(C(=O)c2ccc(Cl)nc2)n1C)c1ccc(Cl)c(COc2cccc3ccc(C)nc23)c1Cl` [Compound 17] the “Functional Activity (word result)” value [2] was “No effect” and the “Functional Activity (% Basal)” value [2] was 1 % Basal.
With `Cc1ccc2cccc(OCc3c(Cl)ccc(N(C)C(=O)Cc4ccc(C(=O)c5ccc([N+](=O)[O-])c(C)c5)n4C)c3Cl)c2n1` [Compound 65, N-[2,4-Dichloro-3-(2-methyl-quinolin-8-yloxymethyl)-phenyl]-N-methyl-2-[1-methyl-5-(3-methyl-4-nitro-benzoyl)-1H-pyrrol-2-yl]-acetamide] the “Functional Activity (word result)” value [2] was “Antagonist”.
With `CCN(C(=O)Cc1ccc(C(=O)c2ccc(C#N)cc2)n1C)c1ccc(C)c(COc2cccc3ccc(C)nc23)c1C` [Compound 16] the “Functional Activity (word result)” value [2] was “No effect” and the “Functional Activity (% Basal)” value [2] was 1 % Basal.
For `Cc1ccc2cccc(OCc3c(C)ccc(N4CCC[C@H]4CNC(=O)CCc4ccc(C(=O)c5ccc(C#N)cc5)n4C)c3C)c2n1` [Compound 114], the Ki [1] was 0.545 µM.
